Reference: patent publication US5691310A, “Methods of treatment using proANF peptides” (priority 1995, dated 1997)

Tests used:
porcine aorta = assay: vasodilation of porcine aortic strips preconstricted with 0.3 micromolar phenylephrine; design: species or system pig; conditions: for increase in cyclic GMP levels over baseline levels: associated with vasodilation of porcine aorta; for vasodilation: porcine aorta
Procedure: 30 Kg pigs are sacrificed, and aortic strips are harvested. The strips are attached to F-60 transducer (Narco-BioSystems, Houston, Tex.) and attached to a physiography (Narco-BioSystems) while being submerged in a muscle tissue bath comprising a Krebs Ringer solution at 37° C., with 95% 02 -5% CO2, bubbled through the bath. Percentage vasodilation is measured versus time (as reported in FIG. 1) after preconstriction with 0.3 micromolar phenylephrine.

[1] = system: particulate guanylate cyclase; assay: cyclic GMP / particulate guanylate cyclase activation in cultured smooth muscle cells and porcine aorta; format: cell-based; conditions: cultured smooth muscle cells
Munich-Wistar rats = assay: rat clearance model (diuresis and salt excretion); format: in vivo
Procedure: The same three peptides and ANF from Example I are tested using the rat clearance model. Six control rats and six experimental Munich-Wistar rats, each weighing 150-200 grams, are used for each peptide, with catheters being placed in both jugular veins and in the femoral artery. The ureters are cannulated for simultaneous urine collections with femoral artery blood collections.
After inserting the catheters, a stabilization of one hour is allowed. A 10 μg/kg bolus of each of the respective human sequences of the peptides is given via the jugular vein to six experimental rats followed by a sustaining infusion of 0.1 μg/kg/min for 60 minutes. Blood and urine samples are collected at 20 minute intervals during this 60 minute infusion. In both the control and experimental animals, hematocrits and plasma sodium values remained at the same levels pre- and post-infusion while blood pressure decreased with each of these peptides (see Attachment B).

[2] = system: particulate guanylate cyclase; assay: particulate guanylate cyclase activity in the kidney; format: biochemical; conditions: 1 μM; whole kidney homogenates, renal cortical and medullary membranes, isolated distal nephron
Procedure: Testing is also carried out to determine biologic effects of these peptides by measuring their effects on particulate guanylate activity in the kidney.

[3] = overcoming the negative ionotropic effect of Verapamil
healthy human subjects = assay: infusion into healthy human subjects; format: in vivo; conditions: healthy humans; for urine volume / urine flow (in words): 100 ng/kg body wt per minute for 1 hour i.v.; for sodium excretion compared to baseline (in words): 100 ng/kg body wt per minute for 60 minutes; for systolic and diastolic blood pressures: 100 ng/kg/min i.v. for 60 minutes
Procedure: Infusion of these peptides into healthy human subjects was performed as follows: Human pro-ANF 1-30, pro-ANF 31-67, and pro-ANF 79-98, and hANF (i.e., pro-ANF […], were synthesized by Peninsula Laboratories (Belmont, Calif.). High pressure liquid chromatography (HPLC) analysis was performed on a sample of each of the four peptides to ensure purity. The peptides were dissolved in a sterile 0.9% saline solution to a concentration of 100 μg/ml and dispensed in 2 and 5 ml aliquots into sealed sterile vials. At the time of dispensing, randomly selected vials were tested for pyrogens and sterility. Prior to labeling the vials, the actual peptide content of the dispensed solution were determined by direct radioimmunoassay to account for any possible absorption of the respective peptides to the walls of the vials. All vials were then stored at -80° C. until thawed for individual study.
Normal healthy subjects were chosen on the basis of age (between 20 and 50 years), physical examination and biochemical screenings. The subjects consumed their normal diets prior to testing. The subjects fasted overnight and were tested in the morning in the seated position. Intravenous catheters were placed bilaterally for the administration of pro-hANF 1-30, pro-hANF 31-67, pro-hANF 79-98 and hANF [pro-hANF 99-126] and for blood sampling. After completion of a 45-minute equilibration period, there were three 60-minute phases of the study: baseline, experimental infusion (60 minutes) and recovery (3 hours). The baseline phase consisted of two 30 minute urine collection periods, the experimental phase consisted of three 20 minute urine and plasma collection periods, and the recovery phase consisted of two 30 minute urine and plasma collection periods each hour for three hours post-infusion. Urine output was replaced on a milliliter per milliliter basis throughout the study by administering oral water or orange juice. Urine samples were obtained by voiding at the designated collection periods.
The 36 subjects were divided into 6 groups. One group (i.e., the control group) received a placebo infusion of 0.9% sodium chloride during the experimental infusion phase. […] The four remaining groups of six subjects each received human pro-hANF 1-30, pro-hANF 31-67, pro-hANF 79-98 and hANF. The four groups received the peptides by continuous infusion at the rate of 0.1 μg/kg per minute. The volume administered per hour during the experimental infusion phase was 10 ml for all four peptides and the placebo. All infusions were given by a constant-rate infusion pump, with the final concentrations of prohANFs adjusted for the subjects' body weight. The subjects heart rate and cuff blood pressure were taken at 5 minute intervals throughout the study. The excreted urine was analyzed for sodium concentration.

[4] = system: human subjects with class II New York Heart Association congestive heart failure; assay: infusion into human subjects with congestive heart failure; format: in vivo; conditions: for diuretic properties (in words): congestive heart failure patients; for urine output increase at the end of the 60 minute infusion: congestive heart failure, 0.1 μg/kg body wt/minute; for increase of sodium excretion: human subjects with congestive heart failure
Procedure: Human proANF's 1-30, 31-67, 79-98, and 99-126 (i.e., ANF) were infused into human subjects with class II New York Heart Association congestive heart failure. An identical protocol to that used in example V where these peptides were infused into healthy human subjects was utilized. (See Attachment C for a detailed description of this protocol). The human subjects with congestive heart failure received an identical dose (0.1 μg/kg body wt/minute for 60 minutes) that the healthy human subjects received.

[5] = system: renal medullary Na+-K+-ATPase; assay: inhibition of renal medullary Na+-K+-ATPase activity; format: biochemical; conditions: for inhibition of renal medullary Na+-K+-ATPase activity: 10^-11 M
[6] = system: rat or other vertebrate species; assay: biologic effects of peptides of the rat ANF prohormone; format: in vivo; conditions: peptides of the rat sequence, in the rat or other vertebrate species
Description: At first it was thought that only the C-terminus (i.e., ANF) of ANF prohormone circulated. Before any portion of the rest of the prohormone was known to circulate Dr. Frossman patented the whole rat prohormone which he called Cardiodilatin and portion(s) thereof (U.S. Pat. No. 4,751,284). In this patent Dr. Frossman patented the rat sequence of the ANF prohormone. In his patent he stated that parts of the whole prohormone had activity if the C-terminal end (i.e., ANF) was attached to it. In publications he has stated that the rest of the rat prohormone only has activity if the C-terminus (i.e., ANF with its intact ring structure) of the rat prohormone is attached to it (Frossman W.G., Contr. Nephrol. 50:1-13, 1986) (see Attachment A). Dr. Frossman has never published that other peptide(s) originating from the rat ANF prohormone that he patented have any biologic activity by themselves. Dr. Frossman has further stated on page 11 of Attachment A "I think that the 28 a.a. […] It has been over 10 years since Frossmann submitted his patent and he has never published that any portion of cardiodilatin (i.e., rat ANF prohormone) has any biologic activity if the respective portion is not attached to the ANF portion of cardiodilatin.

[7] = molecular target: particulate guanylate cyclase of porcine aorta and cultured smooth muscle cells (porcine (aorta); not stated for the cultured smooth muscle cells)
[8] = period A, control period (before peptide)
[9] = period B, 1st 60min experimental period, 10 μg/kg bolus then 0.1 μg/kg/min
[10] = period C, 2nd 60min experimental period

## H-NPMYNAVSNADLMDFKNLLDHLEEKMPLED-OH [proANF 1-30, H-Asn-Pro-Met-Tyr-Asn-Ala-Val-Ser-Asn-Ala-Asp-Leu-Met-Asp-Phe-Lys-Asn-Leu- Leu-Asp-His-Leu-Glu-Glu-Lys-Met-Pro-Leu-Glu-Asp-OH]
Porcine aorta
  increase in cyclic GMP levels over baseline levels: four-to-five
  vasodilation: cause vasodilation
[1]
  cyclic GMP levels: increase cyclic GMP levels
Munich-Wistar rats; [8]
  UNa V, urinary sodium excretion rate: 36.37 ± 8.09 μeq-min^-1 -g kidney wt^-1
Munich-Wistar rats; [9]
  UNa V, urinary sodium excretion rate: 224.30 ± 60.34 μeq-min^-1 -g kidney wt^-1
Munich-Wistar rats; [10]
  UNa V, urinary sodium excretion rate: 384.98 ± 124.39 μeq-min^-1 -g kidney wt^-1
[2]
  particulate guanylate cyclase activity: enhance particulate guanylate cyclase
[3]
  negative ionotropic (slowing heartbeat) effect of Verapamil: can overcome the negative ionotropic (slowing heartbeat) effect
Healthy human subjects
  increase of urine flow: 4-12 fold
  urine volume / urine flow (in words): increase in urine volume
  sodium excretion compared to baseline (in words): significantly (P<0.05) increased sodium excretion
  systolic and diastolic blood pressures: decreasing systolic and diastolic blood pressures
[4]
  diuretic properties (in words): stronger diuretic properties than ANF
  urine output increase at the end of the 60 minute infusion: 3- to 6 fold
  increase of sodium excretion: three-to-eight
[5]
  inhibition of renal medullary Na+-K+-ATPase activity: Inhibition of renal medullary Na+-K+-ATPase activity

## angiotensin II [comparison peptide in the Na+-K+-ATPase test, reference compound]
[5]
  inhibition of renal medullary Na+-K+-ATPase activity: Inhibition of renal medullary Na+-K+-ATPase activity

## rat proANF 1-30: peptide consisting of amino acids 1-30 from the rat ANF prohormone (NPVYSAVSNTDLMDFKNLLDHLEEKMPVED; UniProt P01161 25-54, looked up, fragment)
[6]
  biologic effect(s) (blood pressure lowering, sodium excretion or diuretic effects): no biologic effect(s)

## human atrial natriuretic factor (ANF) (from UniProt P01160) (peptide)
[7]
  half maximal activation (ED50) of guanylate cyclase activity: 10 nM

## rat proANF 31-67: peptide consisting of amino acids 31-67 from the rat ANF prohormone (EVMPPQALSEQTDEAGAALSSLSEVPPWTGEVNPSQR; UniProt P01161 55-91, looked up, fragment)
[6]
  biologic effect(s) (blood pressure lowering, sodium excretion or diuretic effects): no biologic effect(s)

## H-SSDRSALLKSKLRALLTAPR-OH [proANF 79-98, H-Ser-Ser-Asp-Arg-Ser-Ala-Leu-Leu-Lys-Ser-Lys-Leu-Arg-Ala-Leu-Leu-Thr-Ala- Pro-Arg-OH]
Porcine aorta
  increase in cyclic GMP levels over baseline levels: four-to-five
  vasodilation: cause vasodilation
[1]
  cyclic GMP levels: increase cyclic GMP levels
Munich-Wistar rats; [8]
  UNa V, urinary sodium excretion rate: 90.88 ± 77.76 μeq-min^-1 -g kidney wt^-1
Munich-Wistar rats; [9]
  UNa V, urinary sodium excretion rate: 363.98 ± 261.85 μeq-min^-1 -g kidney wt^-1
Munich-Wistar rats; [10]
  UNa V, urinary sodium excretion rate: 564.22 ± 315.48 μeq-min^-1 -g kidney wt^-1
[2]
  particulate guanylate cyclase activity: enhance particulate guanylate cyclase
[3]
  negative ionotropic (slowing heartbeat) effect of Verapamil: can overcome the negative ionotropic (slowing heartbeat) effect
Healthy human subjects
  increase of urine flow: 4-12 fold
  urine volume / urine flow (in words): increase in urine volume
  sodium excretion compared to baseline (in words): each of these respective peptides except proANF 79-98 significantly (P<0.05) increased sodium excretion
  systolic and diastolic blood pressures: decreasing systolic and diastolic blood pressures
[4]
  diuretic properties (in words): stronger diuretic properties than ANF
  urine output increase at the end of the 60 minute infusion: 3- to 6 fold
  increase of sodium excretion: no significant increase in sodium excretion
[5]
  inhibition of renal medullary Na+-K+-ATPase activity: Inhibition of renal medullary Na+-K+-ATPase activity

## COc1ccc2cc([C@H](C)C(=O)O)ccc2c1 [Naproxen, reference compound]
[5]; 0.5 mM
  effect on the peptides' inhibition of renal medullary Na+-K+-ATPase: completely blocked each of these peptides'effects on renal medullary Na+-K+-ATPase

## rat proANF 79-98: peptide consisting of amino acids 79-98 from the rat ANF prohormone (PSDRSALLKSKLRALLAGPR; UniProt P01161 103-122, looked up, fragment)
[6]
  biologic effect(s) (blood pressure lowering, sodium excretion or diuretic effects): no biologic effect(s)

## H-SSDRSALLKSKLRALLTAPR-OH [human pro-ANF (79-98)]
[7]
  half maximal activation (ED50) of guanylate cyclase activity: 10 nM
